Experiment [1] deals with Wnt activity (Sp5-Luc reporter in SW480 colon carcinoma cells). Briefly: Wnt activity screening assay (Sp5-Luc reporter gene assay). The class given is cell-based, human. To be noted: Homo sapiens; for EC50: Sp5-Luc reporter, SW480 cells, 36 to 48 hours; for inhibition at 10 µM: SW480, read-out: percent inhibition at 10 μM. The source says:
The screening assay for Wnt activity is described as follows. Reporter cell lines can be generated by stably transducing cancer cell lines (e.g., colon cancer) or primary cells (e.g., IEC-6 intestinal cells) with a lentiviral construct that includes a Wnt-responsive promoter driving expression of the firefly luciferase gene.
SW480 colon carcinoma cells were transduced with a lentiviral vector expressing luciferase with a human Sp5 promoter consisting of a sequence of eight TCF/LEF binding sites. SW480 cells stably expressing the Sp5-Luc reporter gene and a hygromycin resistance gene were selected by treatment with 150 μg/mL of hygromycin for 7 days. These stably transduced SW480 cells were expanded in cell culture and used for all further screening activities. Each compound was dissolved in DMSO as a 10 mM stock and used to prepare compound source plates. Serial dilution (1:3, 10-point dose-response curves starting from 10 μM) and compound transfer was performed using the ECHO 550 (Labcyte, Sunnyvale, Calif.) into 384-well white solid bottom assay plates (Greiner Bio-One) with appropriate DMSO backfill for a final DMSO concentration of 0.1%. For Sp5-Luc reporter gene assays, the cells were plated at 4,000 cells/well in 384-well plates with a DMEM medium containing 1% fetal bovine serum, and 1% Penicillin-Streptomycin and incubated for 36 to 48 hours at 37° C. and 5% CO2. Following incubation, 15 μl of BriteLite Plus luminescence reagent (Perkin Elmer) was added to each well of the 384-well assay plates. The plates were placed on an orbital shaker for 2 min and then luminescence was quantified using the Envision (Perkin Elmer) plate reader. Readings were normalized to DMSO only treated cells, and normalized activities were utilized for EC50 calculations using the dose-response log (inhibitor) vs. response -variable slope (four parameters) nonlinear regression feature available in GraphPad Prism 5.0 (or Dotmatics).

The target of a further experiment is GSK3β kinase (Homo sapiens (Human), UniProt P49841). Briefly: GSK3β kinase assay (Ser/Thr 09 peptide Z-lyte, FRET).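 Further: Coumarin/fluorescein emission ratio converted to percent phosphorylation against unphosphorylated (0%) and phosphorylated (100%) controls, 1 h compound incubation at room temperature, 11-point threefold dilutions from 10 µM, run in duplicate.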 Particulars: method text calls the value IC50. The class given is biochemical.
GSK3β kinase, sequence (P49841 whole entry): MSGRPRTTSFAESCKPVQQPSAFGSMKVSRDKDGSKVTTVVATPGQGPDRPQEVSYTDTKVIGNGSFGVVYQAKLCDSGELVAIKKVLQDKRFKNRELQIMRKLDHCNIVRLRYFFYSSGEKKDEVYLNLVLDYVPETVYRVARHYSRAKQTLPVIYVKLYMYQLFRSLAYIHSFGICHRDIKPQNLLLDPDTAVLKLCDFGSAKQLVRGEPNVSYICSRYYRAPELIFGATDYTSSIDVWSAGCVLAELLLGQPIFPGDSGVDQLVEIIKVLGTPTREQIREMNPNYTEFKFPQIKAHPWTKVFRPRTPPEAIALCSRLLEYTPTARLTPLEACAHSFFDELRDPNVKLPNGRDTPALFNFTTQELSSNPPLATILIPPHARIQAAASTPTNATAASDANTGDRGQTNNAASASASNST
Experiment [2] relates to Tau phosphorylation at Ser396 (pSer396), SH-SY5Y cells. Description: Tau phosphorylation at Ser396 (pSer396) in SH-SY5Y cells, ELISA/western blot.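 Further: cell lysates probed for reduced Tau pSer396 via ELISA (colorimetric) or western blot (chemiluminescence), both with one shared pSer396 antibody, EC50 for lowering phosphorylation.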 The class given is cell-based, human. Particulars: Homo sapiens; SH-SY5Y cells, overnight (16-18 h); read-out: pSer396 Tau EC50.
Experiment [3] relates to SW480 colon carcinoma cells. Description: Cell viability assay (CellTiter-Glo) in SW480 cells.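 On all read-outs here: SW480 cells stably carrying an Sp5-luciferase TCF/LEF reporter, luminescent ATP signal as viability measure, DMSO-treated cells as control.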 The class given is cell-based, human. To be noted: Homo sapiens; for EC50: 96 h, cell viability, SW480 cells, four days, CellTiter-Glo; for inhibition at 10 µM: SW480, read-out: percent inhibition at 10 μM.
For experiment [4], the system named is LL29 cells (primary human fibroblasts derived from IPF patients), α-smooth muscle actin. Description: Inhibition of fibrotic process: αSMA in TGF-β1-treated primary human fibroblasts from IPF patients (LL29 cells). It is filed as cell-based. Particulars: Homo sapiens, Fibroblast; for EC50: 96 h, % αSMA-positive LL29 cells, TGF-β1 20 ng/mL, 4 days; for inhibition at 10 µM: read-out: percent inhibition at 10 μM. The source says: Representative compounds were screened using primary human fibroblasts (derived from IPF patients) treated with TGF-β1 to determine their ability to inhibit the fibrotic process.
Primary human fibroblasts derived from IPF patients (LL29 cells) [^1Xiaoqiu Liu, et. al., “Fibrotic Lung Fibroblasts Show Blunted Inhibition by cAMP Due to Deficient cAMP Response Element-Binding Protein Phosphorylation”, Journal of Pharmacology and Experimental Therapeutics (2005), 315(2), 678-687; ^2Watts, K. L., et. al., “RhoA signaling modulates cyclin D1 expression in human lung fibroblasts; implications for idiopathic pulmonary fibrosis”, Respiratory Research (2006), 7(1), 88] were obtained from American Type Culture Collection (ATCC) and expanded in F12 medium supplemented with 15% Fetal Bovine Serum and 1% Penicillin/Streptomycin.
Each compound was dissolved in DMSO as a 10 mM stock and used to prepare compound source plates. Serial dilution (1:2, 11-point dose-response curves from […] to 0.94 nM) and compound transfer was performed using the ECHO 550 (Labcyte, Sunnyvale, Calif.) into 384-well clear bottom assay plates (Greiner Bio-One) with appropriate DMSO backfill for a final DMSO concentration of 0.1%. LL29 cells were plated at 1,500 cells/well in 70 μL/well F12 medium supplemented with 1% Fetal Bovine Serum. TGF-β1 (Peprotech; 20 ng/mL) was added to the plates to induce fibrosis (ref. 1 and 2 above). Wells treated with TGF-31 and containing DMSO were used as positive control, and cells with only DMSO were negative control. Cells were incubated at 37° C. and 5% CO2 for 4 days. Following incubation for 4 days, SYTOX green nucleic acid stain (Life Technologies [Thermo Fisher Scientific]) was added to the wells at a final concentration of 1 μM and incubated at room temperature for 30 min. Cells were then fixed using 4% formaldehyde (Electron Microscopy Sciences), washed 3 times with PBS followed by blocking and permeabilization using 3% Bovine Serum Albumin (BSA; Sigma) and 0.3% Triton X-100 (Sigma) in PBS. Cells were then stained with antibody specific to α-smooth muscle actin (αSMA; Abcam) (ref. 1 and 2 above) in 3% Bovine Serum Albumin (BSA; Sigma) and 0.3% Triton X-100 (Sigma) in PBS, and incubated overnight at 4° C. Cells were then washed 3 times with PBS, followed by incubation with Alexa Flor-647 conjugated secondary antibody (Life Technologies [Thermo Fisher Scientific]) and DAPI in 3% Bovine Serum Albumin (BSA; Sigma) and 0.3% Triton X-100 (Sigma) in PBS at room temperature for 1 hour. Cells were then washed 3 times with PBS and plates were sealed for imaging. αSMA staining was imaged by excitation at 630 nm and emission at 665 nm and quantified using the Compartmental Analysis program on the CellInsight CX5 (Thermo Scientific). Dead or apoptotic cells were excluded from analysis based on positive SYTOX green staining. % of total cells positive for αSMA were counted in each well and normalized to the average of 11 wells treated with TGF-β1 on the same plate using Dotmatics' Studies Software.

Another experiment has as its system IL-6. Description: IL-6 inhibition in LPS-stimulated human peripheral blood mononuclear cells (HTRF). The class given is cell-based. Particulars: Homo sapiens, PBMC; for EC50: IL-6, LPS-stimulated huPBMCs, HTRF. How it is done: Fresh Normal PB MNC (Catalog # PB001, AllCells, Alameda, Calif.) were shipped overnight at 4° C. and resuspended in Roswell Park Memorial Institute (RPMI) 1640 Medium, with GlutaMAX Supplement (Catalog #61870127, ThermoFisher Scientific, Waltham, Mass.) supplemented with 1% Penicillin-Streptomycin (Catalog #151401633 ThermoFisher Scientific, Waltham, Mass.) and 1% fetal bovine serum (FBS) (Catalog #16140089, ThermoFisher Scientific, Waltham, Mass.) assay media.
Fresh normal human peripheral blood mononuclear cells (huPBMCs) were resuspended in 1% FBS-RPMI assay media with 1% Penicillin-Streptomycin 1% to a cell concentration of 1×10e6 cells/mL. Each compound was dissolved in DMSO (Catalog # D8418-100 ml, Sigma-Aldrich, St. Louis, Mo.) as a 10 mM stock and used to prepare compound source plates. Serial dilution (1:3, 10-point dose-response curves starting from 10 μM) and compound transfer was performed using the ECHO 550 (Labcyte, Sunnyvale, Calif.) into 384-well white Proxiplate-Plus assay plates (Catalog #6008289, PerkinElmer, Shelton, Conn.) with appropriate DMSO backfill for a final DMSO concentration of 0.25%. huPBMCs were plated at 5000 cells/well in the 384-well Proxiplate-Plus assay plates and incubated at 37° C.-5% CO2 for 2 hours. 50 ng/mL of Lipopolysaccharides from Escherichia coli 0111:B4 (Catalog # L5293-2 ML, Sigma-Aldrich, St. Louis, Mo.) was added after 2 hours and cells were incubated for another 22 hours at 37° C.-5% CO2. After 22 hour incubation, a mixture of anti-IL6 XL665 and anti-IL-6 Cryptate diluted in reconstitution buffer (Catalog #62IL6PEC, Cisbio Inc., Bedford, Mass.) was added to each well. Following incubation for 3 hours at room temperature, Homogeneous Time-Resolved Fluorescence (HTRF) was measured using the Envision (Perkin Elmer, Shelton, Conn.) at 665 nm and […]. The ratio of fluorescence at 665 nm to 620 nm was used as a readout for IL-6 quantification. All samples were processed in duplicate. Readings were normalized to DMSO treated cells and normalized activities were utilized for EC50 calculations. EC50 was determined using software generated by Dotmatics Limited (Windhill Bishops Stortford Herts, UK) using the Levenberg-Marquardt 4 parameter fitting procedure with finite different gradients.

In the next experiment the target is DYRK1A kinase (Homo sapiens (Human), UniProt Q13627). Briefly: DYRK1A kinase assay (Ser/Thr 18 peptide Z-lyte, FRET).
Setting [5] is: DYRK1A kinase, method text calls the value IC50.

This note sets out measurements from patent US10604514B2, “6-(5-membered heteroaryl)isoquinolin-3-yl carboxamides and preparation and use thereof” (Samumed, LLC, priority 2017, dated 2020).

Molecules are shown by their SMILES. Like-named read-outs stand apart in the source and are kept apart here. A value given as a limit tells only on which side of the number the result lay.

Turning to `Cn1cc(-c2cc(F)c3cnc(NC(=O)[C@H]4CC[C@H](N(C)C)CC4)cc3c2)cn1` [Compound 1, trans-4-(Dimethylamino)-N-(8-fluoro-6-(1-methyl-1H-pyrazol-4-yl)isoquinolin-3-yl)cyclohexane-1-carboxamide], the EC50 came out at 0.239 µM in experiment [1]; 0.107 µM at GSK3β kinase; 0.368 µM in experiment [2]; 0.839 µM in experiment [3]; 0.445 µM in experiment [4]; 3.04 µM in the experiment with IL-6. The EC50 on DYRK1A kinase (setting [5]) came out at 0.004 µM.

For the compound `CC(C)CN1CCC(C(=O)Nc2cc3cc(-c4ccn(C)n4)ccc3cn2)CC1` [Compound 7, 1-Isobutyl-N-(6-(1-methyl-1H-pyrazol-3-yl)isoquinolin-3-yl)piperidine-4-carboxamide], the figures for the inhibition at 10 µM in experiment [1] and in experiment [3] were 32.9% and 42.5%, respectively. Also, the 50% effective concentration (EC50) in experiment [1] is > 10 µM; on GSK3β kinase, 1.9 µM; in experiment [3] it was > 10 µM; in experiment [4] it was 2.66 µM; in the experiment with IL-6, 9.42 µM; at DYRK1A kinase (setting [5]) it was 0.376 µM.

Turning to `Cc1ncc(-c2cc(F)c3cnc(NC(=O)[C@H]4CC[C@H](N5CCOCC5)CC4)cc3c2)o1` [Compound 19, trans-N-(8-Fluoro-6-(2-methyloxazol-5-yl)isoquinolin-3-yl)-4-morpholinocyclohexane-1-carboxamide], the inhibition at 10 µM in experiment [1] was found to be 22.4%; in experiment [3] it was 44.8%; in experiment [4], 20.6%. In addition, the concentration giving a half-maximal response (EC50) in experiment [1] is > 10 µM; on GSK3β kinase, 1.16 µM; in experiment [3] it was > 10 µM; in experiment [4], > 10 µM; in the experiment on IL-6, 3.22 µM; on DYRK1A kinase (setting [5]) it was 0.11 µM.

Regarding `Cc1ncc(-c2ccc3cnc(NC(=O)[C@H]4CC[C@H](N(C)C)CC4)cc3c2)o1` [Compound 45, trans-4-(Dimethylamino)-N-(6-(2-methyloxazol-5-yl)isoquinolin-3-yl) cyclohexane-1-carboxamide], the concentration giving a half-maximal response (EC50) in experiment [1] is 1.86 µM; in experiment [2], 0.32 µM; in experiment [4], 0.095 µM; at DYRK1A kinase (setting [5]), 0.003 µM.

As for `[2H]C1([2H])CCC([2H])([2H])N1c1cc(C(=O)Nc2cc3cc(-c4cncn4C)ccc3cn2)ccn1` [Compound 79, N-(6-(1-methyl-1H-imidazol-5-yl)isoquinolin-3-yl)-2-(pyrrolidin-1-yl-2,2,5,5-d4)isonicotinamide], the EC50 in experiment [1] is 4.04 µM; in experiment [2], > 10 µM; in experiment [3], 0.464 µM; in experiment [4], 0.572 µM; with IL-6 it was 1.34 µM.

Take `[2H]c1c([2H])c(C(=O)Nc2cc3cc(-c4cncn4C)ccc3cn2)c([2H])c([2H])c1F` [Compound 81, 4-Fluoro-N-(6-(1-methyl-1H-imidazol-5-yl)isoquinolin-3-yl)benzamide-2,3,5,6-d4]: the inhibition at 10 µM in experiment [1] was determined as 36.3%. Further, the EC50 in experiment [1] is > 10 µM; in experiment [2], 2.83 µM; in experiment [3], 0.486 µM; in experiment [4], 0.309 µM; in the experiment with IL-6, 1.12 µM.

As to `Cn1cc(-c2ccc3cnc(NC(=O)c4ccnc(N5CC[N+](C)([O-])CC5)c4)cc3c2)nn1` [Compound 224, 1-methyl-4-(4-((6-(1-methyl-1H-1,2,3-triazol-4-yl)isoquinolin-3-yl)carbamoyl)pyridin-2-yl)piperazine 1-oxide], the inhibition at 10 µM in experiment [1] amounted to 43.8%; in experiment [3] it was 24.6%; in experiment [4] it was 13.1%; in the experiment with IL-6 (read-out: percent value in parentheses below EC50 >10) it was 13.7%. The EC50 in experiment [1] is > 10 µM; at GSK3β kinase it was 0.703 µM; in experiment [3], > 10 µM; in experiment [4] it was > 10 µM; with IL-6 it was > 10 µM; on DYRK1A kinase, 0.001 µM.

Turning to `Cc1ncc(-c2cc(F)c3cnc(NC(=O)N(C)C4CCN(C)CC4)cc3c2)o1` [Compound 229, 3-(8-Fluoro-6-(2-methyloxazol-5-yl)isoquinolin-3-yl)-1-methyl-1-(1-methylpiperidin-4-yl)urea], the figures for the inhibition at 10 µM in experiment [1] and in experiment [3] were 0% and 49.5%, respectively. For the same compound, the EC50 is > 10 µM in experiment [1]; 6.71 µM at GSK3β kinase; > 10 µM in experiment [3]; 9.98 µM in experiment [4]; 8.96 µM in the experiment with IL-6; 1 µM on DYRK1A kinase (setting [5]).
